Where two headings read alike, the source gives them in different places.
Molecular target: T1, human CRF receptors (Homo sapiens, UniProt P34998)
T1 construct: expressed in transfected cells
T1 sequence (P34998 24-415): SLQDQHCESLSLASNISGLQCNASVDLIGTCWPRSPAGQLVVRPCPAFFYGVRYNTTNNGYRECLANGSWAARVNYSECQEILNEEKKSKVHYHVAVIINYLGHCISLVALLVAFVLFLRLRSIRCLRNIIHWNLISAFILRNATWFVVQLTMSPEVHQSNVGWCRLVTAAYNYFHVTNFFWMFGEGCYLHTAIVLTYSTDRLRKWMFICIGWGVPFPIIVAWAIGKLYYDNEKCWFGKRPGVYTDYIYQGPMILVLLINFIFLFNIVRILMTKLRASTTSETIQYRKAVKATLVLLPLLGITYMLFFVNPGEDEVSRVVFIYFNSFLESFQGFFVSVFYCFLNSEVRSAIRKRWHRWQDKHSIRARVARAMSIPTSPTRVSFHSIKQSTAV
Assay: CRF receptor binding activity (radioligand displacement, Example 25)
From the text: The effectiveness of a compound as a CRF receptor antagonist may be determined by various assay methods. […] CRF receptor affinity may be determined by binding studies that measure the ability of a compound to inhibit the binding of a radiolabeled CRF (e.g., [^125I]tyrosine-CFR) to its receptor (e.g., receptors prepared from rat cerebral cortex membranes). The radioligand binding assay described by DeSouza et al. (supra, 1987) provides an assay for determining a compound's affinity for the CRF receptor.
[formula] where L=radioligand and KD=affinity of radioligand for receptor (Cheng and Prusoff, Biochem. Pharmacol. 22:3099, 1973).
By utilizing radiolabeled CRF ligands, the assay may be used to evaluate the binding activity of the compounds of the present invention with any CRF receptor subtype.
Briefly, the binding assay involves the displacement of a radiolabeled CRF ligand from the CRF receptor. More specifically, the binding assay is performed in 96-well assay plates using 1-10 μg cell membranes from cells stably transfected with human CRF receptors. […] The mixture is incubated for 2 hours at 22° C. followed by separation of the bound and free radioligand by rapid filtration over glass fiber filters. Following three washes, the filters are dried and radioactivity (Auger electrons from ^125I) is counted using a scintillation counter. All radioligand binding data may be analyzed using the non-linear least-squares curve-fitting programs Prism (GraphPad Software Inc) or XLfit (ID Business Solutions Ltd).

[1] = displacement of [125I] tyrosine-sauvagine from membranes of cells stably transfected with human CRF receptors, less than 0.10 μM (i.e., 100 nM), read-out: Ki (CRF receptor binding affinity)

Row | Structure (SMILES) | Ki [1] [nM] | Ki [nM]
1 | CCC(Cc1nc(C)no1)Nc1cc(C)nc2c(-c3ccc(OC)cc3C)c(C)nn12 (stereo not shown) [Example 12-9, [3-(4-Methoxy-2-methyl-phenyl)-2,5-dimethyl-pyrazolo[1,5-a]pyrimidin-7-yl]-[1-(3-methyl-[1,2,4]oxadiazol-5-ylmethyl)-propyl]-amine] | < 100 | 
2 | CCc1noc(C[C@@H](C)Nc2cc(C)nc3c(-c4ccc(OC)cc4C)c(C)nn23)n1 [Example 11-17, [2-(3-Ethyl-[1,2,4]oxadiazol-5-yl)-(R)-1-methyl-ethyl]-[3-(4-methoxy-2-methyl-phenyl)-2,5-dimethyl-pyrazolo[1,5-a]pyrimidin-7-yl]-amine] | < 100 | 
3 | CCCC(Nc1cc(C)nc2c(-c3ccc(OC)cc3C)c(C)nn12)c1nc(C)no1 (stereo not shown) [Example 11-5, [3-(4-Methoxy-2-methyl-phenyl)-2,5-dimethyl-pyrazolo[1,5-a]pyrimidin-7-yl]-[1-(3-methyl-[1,2,4]oxadiazol-5-yl)-butyl]-amine] | < 100 | 
4 | CCC(Cc1nc(C2CC2)no1)Nc1cc(C)nc2c(-c3ccc(OC)cc3OC)c(C)nn12 (stereo not shown) [Example 12-10, [1-(3-Cyclopropyl-[1,2,4]oxadiazol-5-ylmethyl)-propyl]-[3-(2,4-dimethoxy-phenyl)-2,5-dimethyl-pyrazolo[1,5-a]pyrimidin-7-yl]-amine] | < 100 | 
5 | Cc1cc(N[C@H](CC(C)C)c2nc(C)no2)n2nc(C)c(-c3cnc(N(C)C)cc3C)c2n1 [Example 11-18, [3-(6-Dimethylamino-4-methyl-pyridin-3-yl)-2,5-dimethyl-pyrazolo[1,5-a]pyrimidin-7-yl]-[3-methyl-(R)-1-(3-methyl-[1,2,4]oxadiazol-5-yl)-butyl]-amine] | < 100 | 
6 | COc1ccc(-c2c(C)nn3c(NC(CC(C)C)c4nc(C)no4)cc(C)nc23)c(OC)c1 (stereo not shown) [Example 11-23, [3-(2,4-Dimethoxy-phenyl)-2,5-dimethyl-pyrazolo[1,5-a]pyrimidin-7-yl]-[3-methyl-1-(3-methyl-[1,2,4]oxadiazol-5-yl)-butyl]-amine] | < 100 | 
7 | COc1ccc(-c2c(C)nn3c(NC(C)Cc4nc(C(C)C)no4)cc(C)nc23)c(C)c1 (stereo not shown) [Example 12-5, [2-(3-Isopropyl-[1,2,4]oxadiazol-5-yl)-1-methyl-ethyl]-[3-(4-methoxy-2-methyl-phenyl)-2,5-dimethyl-pyrazolo[1,5-a]pyrimidin-7-yl]-amine] | < 100 | 
8 | COc1ccc(-c2c(C)nn3c(N[C@H](C)Cc4nc(C)no4)cc(C)nc23)c(C)c1 [Example 11-10, [3-(4-Methoxy-2-methyl-phenyl)-2,5-dimethyl-pyrazolo[1,5-a]pyrimidin-7-yl]-[(R)-1-methyl-2-(3-methyl-[1,2,4]oxadiazol-5-yl)-ethyl]-amine] |  | < 100
9 | COc1ccc(-c2c(C)nn3c(NC(Cc4nc(C)no4)C(F)(F)F)cc(C)nc23)c(C)c1 (stereo not shown) [Example 12-3, [3-(4-Methoxy-2-methyl-phenyl)-2,5-dimethyl-pyrazolo[1,5-a]pyrimidin-7-yl]-[2,2,2-trifluoro-1-(3-methyl-[1,2,4]oxadiazol-5-ylmethyl)-ethyl]-amine] | < 100 | 
10 | CCC(Nc1cc(C)nc2c(-c3ccc(OC)cc3C)c(C)nn12)c1nc(C(C)C)no1 (stereo not shown) [Example 11-4, [1-(3-Isopropyl-[1,2,4]oxadiazol-5-yl)-propyl]-[3-(4-methoxy-2-methyl-phenyl)-2,5-dimethyl-pyrazolo[1,5-a]pyrimidin-7-yl]-amine] | < 100 | 

Other lines, results leading:

Row | Ki [1] [nM] | Ki [nM] | Structure (SMILES)
11 | < 100 |  | COCCN(Cc1nc(C)no1)c1cc(C)nc2c(-c3ccc(OC)cc3OC)c(C)nn12 [Example 15-1, [3-(2,4-Dimethoxy-phenyl)-2,5-dimethyl-pyrazolo[1,5-a]pyrimidin-7-yl]-(2-methoxy-ethyl)-(3-methyl-[1,2,4]oxadiazol-5-ylmethyl)-amine]
12 | < 100 |  | COc1ccc(-c2c(C)nn3c(N[C@H](C)Cc4nc(C(F)(F)F)no4)cc(C)nc23)c(C)c1 [Example 13-5, [3-(4-Methoxy-2-methyl-phenyl)-2,5-dimethyl-pyrazolo[1,5-a]pyrimidin-7-yl]-[(R)-1-methyl-2-(3-trifluoromethyl-[1,2,4]oxadiazol-5-yl)-ethyl]-amine]
13 | < 100 |  | CC[C@H](Nc1cc(C)nc2c(-c3ccc(OC)cc3Cl)c(C)nn12)c1nc(C)no1 [Example 14-4, [3-(2-Chloro-4-methoxy-phenyl)-2,5-dimethyl-pyrazolo[1,5-a]pyrimidin-7-yl]-[(S)-1-(3-methyl-[1,2,4]oxadiazol-5-yl)-propyl]-amine]
14 | < 100 |  | COc1ccc(-c2c(C)nn3c(NC(C)Cc4nnc(C(F)(F)F)o4)cc(C)nc23)c(C)c1 (stereo not shown) [Example 23-2, [3-(4-Methoxy-2-methyl-phenyl)-2,5-dimethyl-pyrazolo[1,5-a]pyrimidin-7-yl]-[1-methyl-2-(5-trifluoromethyl-[1,3,4]oxadiazol-2-yl)-ethyl]-amine]
15 | < 100 |  | CCC(Nc1cc(C)nc2c(-c3ccc(Cl)cc3OC)c(C)nn12)c1nc(C)no1 (stereo not shown) [Example 24-2, [3-(4-Chloro-2-methoxy-phenyl)-2,5-dimethyl-pyrazolo[1,5-a]pyrimidin-7-yl]-[1-(3-methyl-[1,2,4]oxadiazol-5-yl)-propyl]-amine]
16 | < 100 |  | COc1ccc(-c2c(C)nn3c(N[C@@H](Cc4nc(C)no4)C(F)(F)F)cc(C)nc23)c(C)c1 [Example 13-2, [3-(4-Methoxy-2-methyl-phenyl)-2,5-dimethyl-pyrazolo[1,5-a]pyrimidin-7-yl]-[2,2,2-trifluoro-(S)-1-(3-methyl-[1,2,4]oxadiazol-5-ylmethyl)-ethyl]-amine]
17 | < 100 |  | COc1ccc(-c2c(C)nn3c(N[C@@H](Cc4nc(C(F)(F)F)no4)C(F)(F)F)cc(C)nc23)c(OC)c1 [Example 13-9, [3-(2,4-Dimethoxy-phenyl)-2,5-dimethyl-pyrazolo[1,5-a]pyrimidin-7-yl]-[2,2,2-trifluoro-(S)-1-(3-trifluoromethyl-[1,2,4]oxadiazol-5-ylmethyl)-ethyl]-amine]
18 | < 100 |  | CCC(Nc1cc(C)nc2c(-c3ccc(Cl)cc3C)c(C)nn12)c1nc(C)no1 (stereo not shown) [Example 24-4, [3-(4-Chloro-2-methyl-phenyl)-2,5-dimethyl-pyrazolo[1,5-a]pyrimidin-7-yl]-[1-(3-methyl-[1,2,4]oxadiazol-5-yl)-propyl]-amine]
19 | < 100 |  | COc1ccc(-c2c(C)nn3c(N[C@H](C)Cc4nc(C(F)(F)F)no4)cc(C)nc23)c(Cl)c1 [Example 13-6, [3-(2-Chloro-4-methoxy-phenyl)-2,5-dimethyl-pyrazolo[1,5-a]pyrimidin-7-yl]-[(R)-1-methyl-2-(3-trifluoromethyl-[1,2,4]oxadiazol-5-yl)-ethyl]-amine]
20 | < 100 |  | COc1ccc(-c2c(C)nn3c(N[C@H](C)Cc4nc(C(F)(F)F)no4)cc(C)nc23)c(OC)c1 [Example 13-7, [3-(2,4-Dimethoxy-phenyl)-2,5-dimethyl-pyrazolo[1,5-a]pyrimidin-7-yl]-[(R)-1-methyl-2-(3-trifluoromethyl-[1,2,4]oxadiazol-5-yl)-ethyl]-amine]
21 | < 100 |  | COc1ccc(-c2c(C)nn3c(NC(C)Cc4nc(C(F)(F)F)no4)cc(C)nc23)c(C)c1 (stereo not shown) [Example 13-3, [3-(4-Methoxy-2-methyl-phenyl)-2,5-dimethyl-pyrazolo[1,5-a]pyrimidin-7-yl]-[1-methyl-2-(3-trifluoromethyl-[1,2,4]oxadiazol-5-yl)-ethyl]-amine]
22 | < 100 |  | CCC[C@H](Nc1cc(C)nc2c(-c3ccc(OC)cc3C)c(C)nn12)c1nc(C)no1 [Example 13-1, [3-(4-Methoxy-2-methyl-phenyl)-2,5-dimethyl-pyrazolo[1,5-a]pyrimidin-7-yl]-[(S)-1-(3-methyl-[1,2,4]oxadiazol-5-yl)-butyl]-amine]
23 | < 100 |  | COc1ccc(-c2c(C)nn3c(N[C@H](C)Cc4noc(C(F)(F)F)n4)cc(C)nc23)c(C)c1 [Example 18-2, [3-(4-Methoxy-2-methyl-phenyl)-2,5-dimethyl-pyrazolo[1,5-a]pyrimidin-7-yl]-[(R)-1-methyl-2-(5-trifluoromethyl-[1,2,4]oxadiazol-3-yl)-ethyl]-amine]
24 | < 100 |  | COc1ccc(-c2c(C)nn3c(N[C@@H](Cc4nc(C)no4)C(F)(F)F)cc(C)nc23)c(Cl)c1 [Example 13-4, [3-(2-Chloro-4-methoxy-phenyl)-2,5-dimethyl-pyrazolo[1,5-a]pyrimidin-7-yl]-[2,2,2-trifluoro-(S)-1-(3-methyl-[1,2,4]oxadiazol-5-ylmethyl)-ethyl]-amine]
25 |  | < 100 | COc1ccc(-c2c(C)nn3c(N[C@H](C)Cc4noc(C)n4)cc(C)nc23)c(C)c1 [Example 17-1, [3-(4-Methoxy-2-methyl-phenyl)-2,5-dimethyl-pyrazolo[1,5-a]pyrimidin-7-yl]-[(R)-1-methyl-2-(5-methyl-[1,2,4]oxadiazol-3-yl)-ethyl]-amine]
